Data as given in the NIST ThermoML archive (doi:10.1016/j.jct.2019.03.022).

Settings: Liquid, Frequency=5 MHz, Pulse-echo method

Cc1ccccc1 [toluene]
Settings | speed of sound [m/s]
323.29 K, 10200 kPa | 1253.2
323.32 K, 20480 kPa | 1305.4
323.32 K, 20600 kPa | 1305.9
323.34 K, 31540 kPa | 1356.7
323.37 K, 44870 kPa | 1413.5
323.38 K, 60790 kPa | 1475.5
323.39 K, 60820 kPa | 1475.5
373.82 K, 7570 kPa | 1046.5
373.83 K, 2170 kPa | 1007.9
373.83 K, 21270 kPa | 1132.5
373.85 K, 35520 kPa | 1209.3
373.87 K, 64470 kPa | 1340.7
373.9 K, 50350 kPa | 1280
422.93 K, 6580 kPa | 863.73
422.98 K, 20740 kPa | 974.49
423.01 K, 36450 kPa | 1073.4
423.04 K, 56200 kPa | 1176.9

O [water]
Settings | speed of sound [m/s]
306.13 K, 1030 kPa | 1517.3
306.14 K, 4950 kPa | 1524
306.15 K, 19980 kPa | 1549.5
306.15 K, 59750 kPa | 1616.5
306.16 K, 29980 kPa | 1566.5
306.16 K, 39950 kPa | 1583.3
306.16 K, 49950 kPa | 1600.1
357.97 K, 20280 kPa | 1593.1
357.99 K, 400 kPa | 1553.7
358 K, 30380 kPa | 1612.5
358 K, 40230 kPa | 1630.9
358.01 K, 50080 kPa | 1649
358.03 K, 59980 kPa | 1666.8
420.93 K, 1180 kPa | 1471.5
421.06 K, 20130 kPa | 1520.6
421.12 K, 40030 kPa | 1568.6
421.2 K, 59900 kPa | 1613.1
